Where two headings read alike, the source gives them in different places. Where a SMILES comes first, the peptide text is derived from it. [ ]: non-standard residue; d: D form. GABA = NCCCC(=O)O
Experiments:
[1] = system: P. falciparum 3D7 parasites; test: P. falciparum growth inhibition assay, 1-cycle (72 h treatment), SYBR DNA staining (library screen at 2 μg/mL and dose-response); assay type: cell-based, Plasmodium falciparum; details: for activity at 2 µg/mL: Plasmodium falciparum, 3D7, 72 h, parasite screen 2 μg/mL
[2] = system: P. falciparum 3D7 parasites; test: P. falciparum growth inhibition assay, 2-cycle (120 h treatment), delayed-death screen and dose-response; assay type: cell-based, Plasmodium falciparum; details: for activity at 2 µg/mL: Plasmodium falciparum, 3D7, 120 h, parasite screen 2 μg/mL
[3] = system: T. gondii RH strain (RH-Tub-eYFP) tachyzoites; test: microbe, parasite or virus in culture; assay type: cell-based, Toxoplasma gondii; details: 72 h, 72 h; for percent parasite growth at 2 µg/mL: Toxoplasma gondii, parasite screen 2 μg/mL
[4] = P. falciparum 3D7, 72 h, parasite screen at 2 μg/mL, % growth, replicate 1
[5] = P. falciparum 3D7, 72 h, parasite screen at 2 μg/mL, % growth, replicate 2
[6] = P. falciparum 3D7, 120 h, parasite screen at 2 μg/mL, % growth, replicate 1
[7] = P. falciparum 3D7, 120 h, parasite screen at 2 μg/mL, % growth, replicate 2
[8] = T. gondii, parasite screen at 2 μg/mL, % growth, replicate 1
[9] = T. gondii, parasite screen at 2 μg/mL, % growth, replicate 2
[10] = library screen at 2 μg/mL, 72 h, % growth, replicate 1
[11] = library screen at 2 μg/mL, 72 h, % growth, replicate 2
[12] = library screen at 2 μg/mL, 120 h, % growth, replicate 1
[13] = library screen at 2 μg/mL, 120 h, % growth, replicate 2
[14] = library screen at 2 μg/mL, % growth, replicate 1
[15] = library screen at 2 μg/mL, % growth, replicate 2
[16] = P. falciparum, 72 h, screen at 2 μg/mL, replicate 1
[17] = P. falciparum, 72 h, screen at 2 μg/mL, replicate 2
[18] = P. falciparum, 120 h, screen at 2 μg/mL, replicate 1
[19] = P. falciparum, 120 h, screen at 2 μg/mL, replicate 2
[20] = T. gondii, screen at 2 μg/mL, replicate 1
[21] = T. gondii, screen at 2 μg/mL, replicate 2

Structure (SMILES)	Pf_72h_%Growth_Rep1 [1, 4] [%]	Pf_72h_%Growth_Rep2 [1, 5] [%]	Pf_120h_%Growth_Rep1 [2, 6] [%]	Pf_120h_%Growth_Rep2 [2, 7] [%]	Tg_72h_%Growth_Rep1 [3, 8] [%]	Tg_72h_%Growth_Rep2 [3, 9] [%]	Pf_72h_%Growth_Rep1 [1, 10] [%]	Pf_72h_%Growth_Rep2 [1, 11] [%]	Pf_120h_%Growth_Rep1 [2, 12] [%]	Pf_120h_%Growth_Rep2 [2, 13] [%]	Tg_72h_%Growth_Rep1 [3, 14] [%]	Tg_72h_%Growth_Rep2 [3, 15] [%]	other results
CO[C@H]1C[C@@H]2CC[C@@H](C)[C@@](O)(O2)C(=O)C(=O)N2CCCC[C@H]2C(=O)O[C@H]([C@H](C)C[C@@H]2CC[C@@H](OP(C)(C)=O)[C@H](OC)C2)CC(=O)[C@H](C)/C=C(\C)[C@@H](O)[C@@H](OC)C(=O)[C@H](C)C[C@H](C)/C=C/C=C/C=C/1C [Ridaforolimus]	–	–	–	–	–	–	–	–	–	–	–	–	activity at 2 µg/mL ([1]; P. falciparum, 72 h, % growth, replicate 1, read-out: Pf_72h_%Growth_Rep1): 68.5%; activity at 2 µg/mL ([1]; P. falciparum, 72 h, % growth, replicate 2, read-out: Pf_72h_%Growth_Rep2): 69.8%; activity at 2 µg/mL ([2]; P. falciparum, 120 h, % growth, replicate 1, read-out: Pf_120h_%Growth_Rep1): 75.1%; activity at 2 µg/mL ([2]; P. falciparum, 120 h, % growth, replicate 2, read-out: Pf_120h_%Growth_Rep2): 55.3%; percent parasite growth at 2 µg/mL ([3]; T. gondii, % growth, replicate 1, read-out: Tg_72h_%Growth_Rep1): 128%; percent parasite growth at 2 µg/mL ([3]; T. gondii, % growth, replicate 2, read-out: Tg_72h_%Growth_Rep2): 84.7%
CC1=C\[C@@H](O)CC(=O)Cc2nc(co2)C(=O)N2CCC=C2C(=O)O[C@H](C(C)C)[C@H](C)/C=C/C(=O)NC\C=C\1 [BIA-O1131]	59.89	79.42	16.87	26.94	125.71	88.67	–	–	–	–	–	–	–
O=C(O)C1CSC(c2ccccc2O)=N1 (stereo not drawn) [Dihydroaeruginoic acid]	–	–	–	–	–	–	74.36	72.53	53.55	57.05	51.46	84.93	–
C=C1c2cccc(O)c2C(=O)C2=C(O)[C@]3(O)C(=O)C(C(N)=O)=C(O)[C@@H](N(C)C)[C@@H]3[C@@H](O)[C@H]12 [BIA-M1467]	83.43	110.33	96.98	103.99	118.90	95.35	–	–	–	–	–	–	–
CC(C)C[C@@H]1NC(=O)[C@@H](C(C)C)NC(=O)[C@@H](C)NC(=O)CCCNC(=O)[C@@H](Cc2c[nH]c3ccccc23)NC(=O)[C@@H](C)NC(=O)[C@@H](C(C)C)NC1=O [Unguisin B] (cyclo([GABA][dA][dV]L[dV][dA][dW]))	–	–	–	–	–	–	–	–	–	–	–	–	Pf_72h_%Growth_Rep1 [1, 16]: 89.12%; Pf_72h_%Growth_Rep2 [1, 17]: 119.76%; Pf_120h_%Growth_Rep1 [2, 18]: 112.33%; Pf_120h_%Growth_Rep2 [2, 19]: 102.07%; Tg_72h_%Growth_Rep1 [3, 20]: 121.22%; Tg_72h_%Growth_Rep2 [3, 21]: 81.61%
Cc1ncc(-c2c[nH]c3ccccc23)o1 [BIA-P1070]	82.71	88.10	92.74	139.06	139.44	88.28	–	–	–	–	–	–	–
C/C=C/[C@@H]1C=C[C@@H]2C[C@H](C)CC[C@H]2[C@]1(C)/C(O)=C1/C(=O)[C@@H](CO)N(C)C1=O [Epiequisetin]	–	–	–	–	–	–	86.43	84.23	86.15	82.07	129.84	98.00	–
C=C[C@]1(C)C[C@@H](O)[C@]2(C)[C@H](C)CC[C@]3(CCC(=O)[C@H]32)[C@@H](C)[C@@H]1O [BIA-M1333]	79.79	96.77	84.29	105.61	107.76	90.41	–	–	–	–	–	–	–
C[C@H]1CCC/C=C/C(=O)c2c(O)cc(O)cc2CC(=O)O1 [Dehydrocurvularin, 10,11-]	–	–	–	–	–	–	–	–	–	–	–	–	Pf_72h_%Growth_Rep1 [1, 16]: 4.73%; Pf_72h_%Growth_Rep2 [1, 17]: 1.02%; Pf_120h_%Growth_Rep1 [2, 18]: 13.56%; Pf_120h_%Growth_Rep2 [2, 19]: 16.52%; Tg_72h_%Growth_Rep1 [3, 20]: 4.20%; Tg_72h_%Growth_Rep2 [3, 21]: 2.39%
CN(C)[C@H]1C(O)=C(C(N)=O)C(=O)[C@@]2(O)C(O)=C3C(=O)c4c(O)ccc(Cl)c4[C@@](C)(O)[C@H]3C[C@@H]12.Cl [Epichlortetracycline hydrochloride]	–	–	–	–	–	–	82.03	85.38	77.41	79.95	92.54	103.55	–

Reference: article PMC12396409, “Screening and hit evaluation of a microbial metabolite library against the pathogenic Plasmodium falciparum and Toxoplasma gondii parasites” (International Journal for Parasitology: Drugs and Drug …, 2025)
